According to PubChem BioAssay AID248 (DTP/NCI, 2004):
Values joined by “and” are separate entries in the source; they are usually repeats but may differ in a detail not shown here. Equal values may be shown once. Inconclusive results and toxic doses are left out. Rule as the data show it: active = T/C of 150% or more; inactive = T/C below 125%.

System: L1210 leukemia ip in BDF1 mice, survival T/C
Assay: NCI In Vivo Anticancer Drug Screen. Data for tumor model L1210 Leukemia (intraperitoneal) in B6D2F1 (BDF1) mice
Settings: endpoint: mean survival time, higher = longer survival
Outline: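 In this screen, tumor-bearing mice given compound are compared to those given vehicle, and their survival values are reported as a treated-to-control quotient.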

[1] = dose: 50.0 mg/kg/injection, schedule: Q01DX009 (ip), vehicle: saline with Tween-80
[2] = dose: 100.0 mg/kg/injection, schedule: Q04DX003 (ip), vehicle: saline with Tween-80
[3] = dose: 200.0 mg/kg/injection, schedule: Q01DX009 (ip), vehicle: saline with Tween-80
[4] = dose: 200.0 mg/kg/injection, schedule: Q04DX003 (ip), vehicle: saline with Tween-80
[5] = dose: 400.0 mg/kg/injection, schedule: Q04DX003 (ip), vehicle: saline with Tween-80
[6] = dose: 100.0 mg/kg/injection, schedule: Q04DX002 (ip), vehicle: Klucel (hydroxypropylcellulose) (HPC)
[7] = dose: 200.0 mg/kg/injection, schedule: Q04DX002 (ip), vehicle: Klucel (hydroxypropylcellulose) (HPC)
[8] = dose: 400.0 mg/kg/injection, schedule: Q04DX002 (ip), vehicle: Klucel (hydroxypropylcellulose) (HPC)
[9] = dose: 100.0 mg/kg/injection, schedule: Q04DX003 (ip), vehicle: saline
[10] = dose: 200.0 mg/kg/injection, schedule: Q04DX003 (ip), vehicle: saline
[11] = dose: 400.0 mg/kg/injection, schedule: Q04DX003 (ip), vehicle: saline
[12] = dose: 100.0 mg/kg/injection, schedule: Q04DX003 (ip), vehicle: Klucel (hydroxypropylcellulose) (HPC)
[13] = dose: 200.0 mg/kg/injection, schedule: Q04DX003 (ip), vehicle: Klucel (hydroxypropylcellulose) (HPC)

Measured: T/C

O=C(/C=C/c1ccccc1)NC(=S)Nc1ccccc1F
inactive: dose: 12.5 mg/kg/injection, schedule: Q01DX009 (ip), vehicle: saline with Tween-80 106 % of control and 88 % of control | dose: 25.0 mg/kg/injection, schedule: Q01DX009 (ip), vehicle: saline with Tween-80 95 % of control and 107 % of control | [1] 97 % of control | dose: 100.0 mg/kg/injection, schedule: Q01DX001 (ip), vehicle: saline with Tween-80 92 % of control | dose: 100.0 mg/kg/injection, schedule: Q04DX002 (ip), vehicle: alcohol 95 % of control and 90 % of control | [2] 94 % of control | dose: 200.0 mg/kg/injection, schedule: Q01DX001 (ip), vehicle: saline with Tween-80 90 % of control | [3] 89 % of control | dose: 200.0 mg/kg/injection, schedule: Q04DX002 (ip), vehicle: alcohol 101 % of control | [4] 87 % of control | dose: 400.0 mg/kg/injection, schedule: Q01DX001 (ip), vehicle: saline with Tween-80 87 % of control | dose: 400.0 mg/kg/injection, schedule: Q01DX009 (ip), vehicle: saline with Tween-80 86 % of control | dose: 400.0 mg/kg/injection, schedule: Q04DX002 (ip), vehicle: alcohol 102 % of control | [5] 86 % of control

CC1(C)C(=O)C=C(N2CCCCC2)c2ccccc21
inactive: [2] 101 % of control | [4] 98 % of control | [5] 97 % of control

CCOC(=N)c1nnn(Cc2ccccc2)c1N
inactive: dose: 100.0 mg/kg/injection, schedule: Q01DX001 (ip), vehicle: saline 89 % of control | dose: 200.0 mg/kg/injection, schedule: Q01DX001 (ip), vehicle: saline 89 % of control

Nc1ccccc1S(N)(=O)=O
inactive: dose: 25.0 mg/kg/injection, schedule: Q04DX002 (ip), vehicle: Klucel (hydroxypropylcellulose) (HPC) 97 % of control | dose: 50.0 mg/kg/injection, schedule: Q04DX002 (ip), vehicle: Klucel (hydroxypropylcellulose) (HPC) 97 % of control | [6] 101 % of control and 120 % of control | [7] 97 % of control and 100 % of control | [8] 113 % of control

CC1(C)N=C(N)N=C(N)N1c1ccc(OCC(=O)Nc2ccc(S(=O)(=O)F)cc2)cc1
inactive: dose: 0.8 mg/kg/injection, schedule: Q01DX009 (ip), vehicle: saline 101 % of control | dose: 4.0 mg/kg/injection, schedule: Q01DX009 (ip), vehicle: saline 103 % of control | dose: 20.0 mg/kg/injection, schedule: Q01DX009 (ip), vehicle: saline 112 % of control

O=C(Nc1ccccc1)OCCOc1ccc(Cl)cc1
inactive: [6] 88 % of control | [7] 95 % of control | [8] 95 % of control

Cc1ccccc1OCC(O)COC(N)=O (stereo unspecified)
inactive: dose: 0.62 mg/kg/injection, schedule: Q04DX003 (ip), vehicle: saline 100 % of control | dose: 1.25 mg/kg/injection, schedule: Q04DX003 (ip), vehicle: saline 100 % of control | dose: 2.5 mg/kg/injection, schedule: Q04DX003 (ip), vehicle: saline 112 % of control | dose: 5.0 mg/kg/injection, schedule: Q04DX003 (ip), vehicle: saline 98 % of control | dose: 10.0 mg/kg/injection, schedule: Q04DX003 (ip), vehicle: saline 98 % of control

CCCN([Si](C)(C)C)[Si](C)(C)C
inactive: [1] 100 % of control | dose: 100.0 mg/kg/injection, schedule: Q01DX009 (ip), vehicle: saline with Tween-80 94 % of control | [2] 99 % of control | [3] 100 % of control | [4] 106 % of control

O=c1oc2ccccc2c(=S)n1-c1ccccc1
inactive: [9] 105 % of control | [10] 94 % of control | [11] 91 % of control

C=CC[N+](CC=C)(CC=C)CCC[N+](CC=C)(CC=C)CC=C
inactive: dose: 12.5 mg/kg/injection, schedule: Q01DX009 (ip), vehicle: water 98 % of control | dose: 25.0 mg/kg/injection, schedule: Q01DX009 (ip), vehicle: water 98 % of control and 101 % of control | dose: 50.0 mg/kg/injection, schedule: Q01DX009 (ip), vehicle: water 102 % of control and 108 % of control

ClC(Cl)C(c1ccccc1)c1ccccc1
inactive: dose: 100.0 mg/kg/injection, schedule: Q01DX001 (ip), vehicle: Klucel (hydroxypropylcellulose) (HPC) 100 % of control | dose: 200.0 mg/kg/injection, schedule: Q01DX001 (ip), vehicle: Klucel (hydroxypropylcellulose) (HPC) 97 % of control | dose: 400.0 mg/kg/injection, schedule: Q01DX001 (ip), vehicle: Klucel (hydroxypropylcellulose) (HPC) 92 % of control

CC(=O)COc1ccc(C(=O)Cl)cc1
inactive: [12] 95 % of control | [13] 102 % of control | dose: 300.0 mg/kg/injection, schedule: Q04DX003 (ip), vehicle: Klucel (hydroxypropylcellulose) (HPC) 106 % of control

C=C(C)C(=NC)Nc1ccc(Cl)c(Cl)c1
inactive: dose: 222.0 mg/kg/injection, schedule: Q01DX Z (ip), vehicle: methylcellulose (MC) 98 % of control | dose: 333.0 mg/kg/injection, schedule: Q01DX Z (ip), vehicle: methylcellulose (MC) 91 % of control | dose: 500.0 mg/kg/injection, schedule: Q01DX Z (ip), vehicle: methylcellulose (MC) 93 % of control

COC(=O)C1(C)CCC(c2ccc(OC)cc2)CC1=O (stereo unspecified)
inactive: dose: 100.0 mg/kg/injection, schedule: Q01DX009 (ip), vehicle: saline 93 % of control | [9] 92 % of control | dose: 200.0 mg/kg/injection, schedule: Q01DX009 (ip), vehicle: saline 88 % of control | [10] 95 % of control | dose: 400.0 mg/kg/injection, schedule: Q01DX009 (ip), vehicle: saline 90 % of control | [11] 88 % of control

Cc1cc(N(CCCl)CCCl)ccc1C=Nc1ccc(C(=O)O)c(O)c1
inactive: dose: 100.0 mg/kg/injection, schedule: Q01DX001 (ip), vehicle: carboxymethylcellulose (CMC) 111 % of control | dose: 200.0 mg/kg/injection, schedule: Q01DX001 (ip), vehicle: carboxymethylcellulose (CMC) 95 % of control

C[Si](C)(C)Oc1c(Cl)cc(Cl)cc1Cl
inactive: [2] 102 % of control | [4] 98 % of control | [5] 91 % of control

CCC(=O)N(C)C(=NC)c1ccc(NC(=O)c2ccc(C(=O)Nc3ccc(C(=NC)N(C)C(=O)CC)cc3)cc2)cc1
inactive: dose: 75.0 mg/kg/injection, schedule: Q01DX015 (ip), vehicle: carboxymethylcellulose (CMC) 90 % of control | dose: 100.0 mg/kg/injection, schedule: Q01DX015 (ip), vehicle: carboxymethylcellulose (CMC) 91 % of control | dose: 150.0 mg/kg/injection, schedule: Q01DX015 (ip), vehicle: carboxymethylcellulose (CMC) 90 % of control | dose: 200.0 mg/kg/injection, schedule: Q01DX015 (ip), vehicle: carboxymethylcellulose (CMC) 97 % of control

CCOC(=O)c1cc(C=O)oc1C
inactive: dose: 25.0 mg/kg/injection, schedule: Q01DX009 (ip), vehicle: Klucel (hydroxypropylcellulose) (HPC) 91 % of control | dose: 50.0 mg/kg/injection, schedule: Q01DX009 (ip), vehicle: Klucel (hydroxypropylcellulose) (HPC) 97 % of control | dose: 100.0 mg/kg/injection, schedule: Q01DX009 (ip), vehicle: Klucel (hydroxypropylcellulose) (HPC) 103 % of control | [12] 95 % of control | [13] 93 % of control | dose: 400.0 mg/kg/injection, schedule: Q04DX003 (ip), vehicle: Klucel (hydroxypropylcellulose) (HPC) 90 % of control
